Test results published in EP0022408A1, “Derivatives of alpha-phenyl-2-pyrrolidine methanol and their salts, process for their preparation, use as medicines and compositions containing them” (ROUSSEL-UCLAF, priority 1979, dated 1981).
Where a name gives a salt, the structure may show the parent alone.

How the values were obtained:
[1] = system: pression artérielle carotidienne; experiment: Hypotensive activity in anaesthetised rats (carotid arterial pressure); format: in vivo, rats mâles de souche Sprague Dawley S.P.F.; conditions: rats anaesthetised with nembutal
Protocol: 3) Déterminiation de l'activité hypotensive
L'activité hypotensive a été étudiée sur des rats mâles de souche Sprague Dawley S.P.F. pesant 300 g environ et anesthésiés au nembutal (50 mg/kg par voie intraveineuse).
Le produit testé a été administré par voie intraveineuse dans la veine jugulaire.
La pression artérielle carotidienne a été mesurée avant et après administration du produit testé.
Le tableau ci-après indique les variations exprimées en pourcentage de la pression artérielle, après administration du produit testé par rapport à la pression artérielle initiale ainsi que le temps pendant lequel se manifestent ces variations.

[2] = system: bronchospasme provoqué par l'histamine; experiment: Action on histamine-induced bronchospasm in the guinea pig (Konzett and Rossler method); format: in vivo, cobaye; conditions: 1µg/kg i.v. one minute before histamine (2 à 10µg/kg i.v.)
Protocol: -2) Action sur le bronchospasme provoqué par l'histamine chez le cobaye
Suivant la méthode de Konzett et Rossler Arch. exp. Path. Pharmakol. 195 71 (1940), de l'histamine est administrée à une dose variant de 2 à 10µg/kg i.v. selon la sensibilité de l'animal.
L'enregistrement de la pression produite par l'air expulsé est effectué à l'aide d'un microdynamomètre Apelab.
Le produit à tester est injecté en solution dans le sérum physiologique par voie i.v. une minute avant l'histamine.
On enregistre un éventuel effet du produit seul et son action antagoniste vis-à-vis de l'agent constricteur.
L'activité antagoniste est exprimée en pourcentage de protection par rapport au bronchospasme initial dû à l'histamine.

souris = experiment: Acute toxicity, intraperitoneal, mouse; format: in vivo; conditions: mortality recorded 48 hours after administration
From the text: 5) Etude de la toxicité aigüe
On évalue les doses létales 50 (DL 50) des produits après administration par voie intrapéritonéale chez la souris.
La mortalité est relevée quarante-huit heures après l'administration des produits.

[3] = system: Hypothermie à la réserpine; experiment: Antidepressant activity: reserpine hypothermia; format: in vivo, souris mâles; conditions: 10 mg/kg I.P; reserpine 4 mg/kg intraperitoneal; rectal temperature measured for 5 hours
Protocol: (§1) 6) Détermination de l'activité antidénpressive
a) Hypothermie à la réserpine
Le test est effectué sur un lot de 10 souris mâles auxquelles on administre par voie intrapéritonéale 4 mg/kg de réserpine.
La température rectale des animaux est mesurée pendant 5 heures à l'aide d'un thermomètre électrique.

[4] = system: Hypothermie à l'apomorphine; experiment: Antidepressant activity: apomorphine hypothermia; format: in vivo, souris mâles; conditions: Mus musculus, ip; intraperitoneal, before apomorphine hydrochloride 16 mg/kg intraperitoneal; rectal temperature; read-out: DE 50 (dose qui réduit de 50 % l'écart de température observé entre les témoins)
Protocol: as §1
b) Hypothermie à l'apomorphine
Le test est effectué sur un lot de 10 souris mâles.
On induit chez les animaux une hypothermie par injection intrapéritonéale de 16 mg/kg de chlorhydrate d'apomorphine. Le composé testé est administré par voie intrapéritonéale 30 mm avant l'injection d'apomorphine; la température rectale des animaux est mesurée 30 mm après l'injection d'apomorphine.
Des animaux témoins reçoivent soit du soluté physiologique, soit de l'apomorphine; on mesure l'écart de température entre les témoins ayant reçu le soluté physiologique, les témoins ayant reçu l'apomorphine seule et les animaux ayant reçu l'apomorphine et le composé testé.
On appelle DE 50 la dose de composé qui réduit de 50 % l'écart de température observé entre les témoins, […]

trachée isolée de cobaye = experiment: Action on isolated guinea pig trachea (carbachol-induced contractions); format: cell-based; conditions: Cavia porcellus; product at 3.10^-6M; carbachol 0,4µ/ml; Krebs Henseleit solution, 37°C; read-out: antagonise les contractions provoquées par le carbachol
Protocol: 1) Action sur la trachée isolée de cobaye
On prélève les trachées de cobaye que l'on vient de sacrifier par un coup sur la nuque, les trachées sont découpées en spirale et suspendues dans une solution de Krebs Henseleit, à la température de 37°C dans laquelle barbote un mélange de 95 % d'oxygène et 5 % de gaz carbonique.
On ajoute dans la solution du carbachol comme agoniste pour provoquer des contractions.
Le produit de l'exemple 1 à la concentration de 3.10^-6M, antagonise de 100 % les contractions provoquées par le carbachol à la concentration de 0,4µ/ml.

Row | SMILES | Variations % de la pression artérielle ([1]; 1 mg/kg intravenous (jugular vein), relative to initial pressure) [%] | Durée d'action ([1]; 1 mg/kg intravenous) [min] | inhibition de la broncho constriction à l'histamine (pourcentage de protection par rapport au bronchospasme initial) ([2]; listed as exemple 1) [%] | dose létale 50 (DL 50) (souris; listed as exemple 1, 2880 min) [mg/kg] | apparition de l'hypothermie provoquée par la réserpine [3] | ED50 [4] [mg/kg] | inhibition at 3 µM (trachée isolée de cobaye) [%] | inhibition de la broncho constriction à l'histamine (pourcentage de protection par rapport au bronchospasme initial) ([2]; listed as exemple 3) [%] | dose létale 50 (DL 50) (souris; listed as exemple 3, 2880 min) [mg/kg]
1 | Oc1ccc(C(O)C2CCCN2)cc1O (single isomer, unassigned) [Exemple 1, Oxalate acidede 4-[α-hydroxy(pyrrolidin-2-yl)méthyl]1,2-benzène diol (isomère A)] | -35 | >65 | 52 | 250 | retarde l'apparition de l'hypothermie provoquée par la réserpine | 25 | 100 |  | 
2 | Oc1ccc(C(O)C2CCCN2)cc1O (single isomer, unassigned) [Exemple 3, Chlorhydrate du 4-/α-hydroxy(pyrrolidin-2-yl) méthyl/1,2-benzène diol (isomère B)] |  |  |  |  |  |  |  | 17 | 40
